Like-named read-outs stand apart in the source and are kept apart here.
Legend:
Aβ1-40 = experiment: Measurement of Aβ1-40 in culture medium of 7W WT APP751 CHO cells by ELISA; format: cell-based, Chinese hamster; settings: for Aβ1-40 (% of control): CHO cells that overexpress APP751, zero = below the detection limit of the assay; for activity at 5 µM: Cricetulus griseus, 5 μM test compound, CHO cells stably transfected with human APP751, culture medium, ELISA, control DMSO;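 as to all read-outs here: 5 µM test compound but RI-coded compounds at 10 µM for 24 hours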
Experimental: (§1) Chinese hamster ovary (CHO) cells, stably transfected with human APP751 (7W WT APP751 CHO cells) were used. See, e.g., Koo and Squazzo, J. Biol. Chem., 269(26): 17386-17389, 1994. The cells were maintained in DMEM medium supplemented with 10% fetal bovine serum and 1× mixture of penicillin/streptomycin/fungizone/glutamine mixture (Cambrex, Md.) geneticin as selecting agent in 75 cm^2 cell culture flasks. The 7W WT APP751 CHO cells were plated in 96-well cell culture plates in quadruplicate, containing 200 microliters of culture medium, for 18 hours at 37° C. and 5% CO2. All test compounds were placed in dimethyl sulfoxide (DMSO) before being added to the cultured confluent 7W WT APP751 CHO cells to a concentration of the test compound of 5 μM. The culture medium was collected and diluted before being assayed by ELISAs for Aβ1-40 at 10-fold dilution and Aβ1-42 at 2-fold dilution, respectively. Concentrations of Aβ1-40 and Aβ1-42, expressed in pg/ml, were determined using commercially available ELISAs (Biosource, Calif.) in a colorimetric assay using labeled antibodies detected spectrophotometrically. For compounds with an identification beginning “RI”, the compounds were tested at a concentration of 10 μM for 24 hours. Control cells were treated with DMSO containing no compound. The percentage reduction in levels of Aβ1-40 and Aβ1-42 as compared to control cells not exposed to the test compounds are reported for the compounds in Tables 1, 2, and 3, supra. An entry of “0” indicates no detectable amount of Aβ1-40 or Aβ1-42 according to the assay conditions. The data in Tables 1, 2, and 3 may be rounded to the nearest 0.1%.

Aβ1-42 = experiment: Measurement of Aβ1-42 in culture medium of 7W WT APP751 CHO cells by ELISA; format: cell-based, Chinese hamster; settings: for Aβ1-42 (% of control): CHO cells that overexpress APP751, zero = below the detection limit of the assay; for activity at 5 µM: Cricetulus griseus, 5 μM test compound, CHO cells stably transfected with human APP751, culture medium, ELISA, control DMSO;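 as to Aβ1-42 (% of control): 5 µM test compound but RI-coded compounds at 10 µM for 24 hours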
Experimental: as §1

[1] = Table 1, 0 = no detectable amount
[2] = Table 1, 0 = no detectable amount, read-out: Aβ1-42 (% of control)
[3] = Table 3, read-out: Aβ-42 (% of control)

Compound | Aβ1-40 (% of control) (Aβ1-40) | Aβ1-42 (% of control) (Aβ1-42) | activity at 5 µM (Aβ1-40; [1]) | activity at 5 µM (Aβ1-42; [2]) | also measured
COC(=O)C1=CN(Cc2ccc(OC)c(OC)c2)C=C(C(=O)OC)C1c1ccc(OC)c(OC)c1 [ST038162, methyl 4-(3,4-dimethoxyphenyl)-1-[(3,4-dimethoxyphenyl)methyl]-5-(methoxycarbonyl)-1,4-dihydropyridine-3-carboxylate] | 49.65 % of control | 58.62 % of control |  |  | 
CC1=C(C(=O)Nc2ccccc2)C(c2ccsc2)C(C#N)=C(SCC(=O)Nc2ccc(Cl)c(C)c2)N1 (centres unmarked) [RI_83] | 44.1 % of control | 55.4 % of control |  |  | 
CCCOc1ccc(C2C(C(=O)OCc3ccc(OC)cc3)=C(C)NC3=C2C(=O)CC(C)(C)C3)cc1OC (centres unmarked) [ST016979, (4-methoxyphenyl)methyl 4-(3-methoxy-4-propoxyphenyl)-2,7,7-trimethyl-5-oxo-1,4,6,7,8-pentahydroquinoline-3-carboxylate] |  |  | 53.7% | 90.1% | 
CC1=C(C(=O)OCCOc2ccccc2)C(c2ccc(Cl)cc2)C2=C(CC(C)(C)CC2=O)N1 (centres unmarked) [ST015093, 2-phenoxyethyl 4-(4-chlorophenyl)-2,7,7-trimethyl-5-oxo-1,4,6,7,8-pentahydroquinoline-3-carboxylate] |  |  | 0% | 0% | 
O=C(N=C1CC(c2ccccc2)N(c2ccncc2)CC1[N+](=O)[O-])Nc1cccnc1 (centres unmarked) [ST026819, 2-(5-nitro-2-phenyl-1-(4-pyridyl)(4-6-hydropyridylidene))-N-(3-pyridyl)-2-azaace tamide] |  |  |  |  | activity at 5 µM (Aβ1-40; Table 3): 64.9%; activity at 5 µM (Aβ1-42; [3]): 57.8%
CCOC(=O)C1=CN(c2ccc(F)cc2)C=C(C(=O)OCC)C1c1ccccc1OCC [ST052316, ethyl 5-(ethoxycarbonyl)-4-(2-ethoxyphenyl)-1-(4-fluorophenyl)-1,4-dihydropyridine-3-carboxylate] | 68.09 % of control | 40.03 % of control |  |  | 
CCOc1ccc(C2C(C(=O)OC(C)C)=C(C)NC3=C2C(=O)CC(c2ccc(OC)cc2)C3)cc1 (centres unmarked) [ST017011, methylethyl 4-(4-ethoxyphenyl)-7-(4-methoxyphenyl)-2-methyl-5-oxo-1,4,6,7,8-pentahydroquinoline-3-carboxylate] |  |  | 45.7% | 74% | 
CC1=C(C(=O)OCCOc2ccccc2)C(c2cccc(O)c2)C2=C(CC(c3ccccc3)CC2=O)N1 (centres unmarked) [ST017315, 2-phenoxyethyl 4-(3-hydroxyphenyl)-2-methyl-5-oxo-7-phenyl-1,4,6,7,8-pentahydroquinoline-3-carboxylate] |  |  | 43.8% | 53.9% | 
CC1=C(C(=O)Nc2ccccc2)C(c2cccs2)C(C#N)=C(SCC(=O)Nc2ccccc2)N1 (centres unmarked) [RI_66] | 20.6 % of control | 23.6 % of control |  |  | 
CC(=O)Oc1ccc(C2C(C(=O)OC(C)C)=C(C)NC3=C2C(=O)CCC3)cc1 (centres unmarked) [ST013192, 4-{2-methyl-3-[(methylethyl)oxycarbonyl]-5-oxo-4-1,4,6,7,8-pentahydroquinolyl} phenyl acetate] |  |  | 55.5% | 82.5% | 
COC(=O)C1=CN(C2CC2)C=C(C(=O)OC)C1c1cc2c(cc1Cl)OCO2 [ST051458, methyl 4-(6-chloro(2H-benzo[d]1,3-dioxolan-5-yl))-1-cyclopropyl-5-(methoxycarbonyl)-1,4-dihydropyridine-3-carboxylate] | 77.81 % of control | 59.9 % of control |  |  | 
CC1=C(C(=O)OC2CCCCC2)C(c2ccccc2OCc2ccccc2)C2=C(CCCC2=O)N1 (centres unmarked) [ST013271, cyclohexyl 2-methyl-5-oxo-4-[2-(phenylmethoxy)phenyl]-1,4,6,7,8-pentahydroquinoline-3-carboxylate] |  |  | 6.92% | 39.9% | 
CCCCCc1c2c(C)c(C(=O)OCC)cc-2cc2n1C(C)C(C)=C2C (centres unmarked) [ST020165, ethyl 3,6,7,8-tetramethyl-4-pentyl-6-hydropyrrolo[4,5-f]indolizine-2-carboxyla te, chloride] |  |  |  |  | activity at 5 µM (Aβ1-40; Table 3): 90.9%; activity at 5 µM (Aβ1-42; [3]): 23.1%
COc1ccc(C2C(C(=O)OC3CCCC3)=C(C)NC3=C2C(=O)CC(C)(C)C3)c(OC)c1 (centres unmarked) [ST013086, cyclopentyl 4-(2,4-dimethoxyphenyl)-2,7,7-trimethyl-5-oxo-1,4,6,7,8-pentahydroquinoline-3-carboxylate] |  |  | 0% | 73.7% | 
COc1cc(C2C(C(=O)OC3CCCCC3)=C(C)NC3=C2C(=O)CC(c2ccccc2)C3)cc(Cl)c1O (centres unmarked) [ST017050, cyclohexyl 4-(3-chloro-4-hydroxy-5-methoxyphenyl)-2-methyl-5-oxo-7-phenyl-1,4,6,7,8-pentahydroquinoline-3-carboxylate] |  |  | 39.6% | 22.2% | 
COc1cc(OC)c(C2C(C(=O)OC3CCCC3)=C(C)NC3=C2C(=O)CC(c2cccs2)C3)cc1OC (centres unmarked) [ST051557, cyclopentyl 2-methyl-5-oxo-7-(2-thienyl)-4-(2,4,5-trimethoxyphenyl)-1,4,6,7,8-pentahydroquinoline-3-carboxylate] |  |  | 57.3% | 93.1% | 
CC1=C(C(=O)OC2CCCCC2)C(c2ccc(Br)cc2)C2=C(CCCC2=O)N1 (centres unmarked) [ST017170, cyclohexyl 4-(4-bromophenyl)-2-methyl-5-oxo-1,4,6,7,8-pentahydroquinoline-3-carboxylate] |  |  | 3.47% | 1.38% | 
CCSCCOC(=O)C1=C(C)NC2=C(C(=O)CC(C)(C)C2)C1c1cccc(C)c1 (centres unmarked) [ST052457, 2-ethylthioethyl 2,7,7-trimethyl-4-(3-methylphenyl)-5-oxo-1,4,6,7,8-pentahydroquinoline-3-carboxylate] |  |  | 38.1% | 63.9% | 
COC(=O)C1=C(C)NC(SCC(=O)c2cccs2)=C(C#N)C1c1ccc2c(c1)OCCO2 (centres unmarked) [ST014052, methyl 4-(2H,3H-benzo[3,4-e]1,4-dioxan-6-yl)-5-cyano-2-methyl-6-(2-oxo-2-(2-thienyl)ethylthio)-1,4-dihydropyridine-3-carboxylate] | 49 % of control | 74.69 % of control |  |  | 
N#CC1=C(N)NC(SCC(N)=O)=C(C#N)C1c1cccs1 (centres unmarked) [RI_4] | 92.2 % of control | 64.7 % of control |  |  | 
CC1=C(C(=O)OC(C)C)C(c2cccc(O)c2)C2=C(CCCC2=O)N1 (centres unmarked) [ST013174, methylethyl 4-(3-hydroxyphenyl)-2-methyl-5-oxo-1,4,6,7,8-pentahydroquinoline-3-carboxylate] |  |  | 34.3% | 73.1% | 
CCOC(=O)C1=C(N)n2c(s/c(=C\c3ccncc3)c2=O)=C(C#N)C1c1ccncc1 (centres unmarked) [ST024405, ethyl 5-amino-8-cyano-3-oxo-7-(4-pyridyl)-2-(4-pyridylmethylene)-4,7-dihydro-1,3-thiazolidino[3,2-a]pyridine-6-carboxylate] | 59.66 % of control | 77.41 % of control |  |  | 
CCc1ccc(NC(=O)CSC2=C(C#N)C(c3ccsc3)C(C(=O)Nc3ccccc3)=C(C)N2)cc1 (centres unmarked) [RI_62] | 91.6 % of control | 62.4 % of control |  |  | 
COc1ccc(/C=c2\sc3n(c2=O)C(N)=C(C#N)C(c2ccc(OC)cc2OC)C=3C#N)c(OC)c1 (centres unmarked) [ST025017, 5-amino-7-(2,4-dimethoxyphenyl)-2-[(2,4-dimethoxyphenyl)methylene]-3-oxo-4,7-dihydro-1,3-thiazolidino[3,2-a]pyridine-6,8-dicarbonitrile] | 64.54 % of control | 72.39 % of control |  |  | 
COc1ccc(COC(=O)C2=C(C)NC3=C(C(=O)CCC3)C2c2ccc(Cl)cc2)cc1 (centres unmarked) [ST018648, (4-methoxyphenyl)methyl 4-(4-chlorophenyl)-2-methyl-5-oxo-1,4,6,7,8-pentahydroquinoline-3-carboxylate] |  |  | 7.49% | 11% | 
CCc1ccc(C2C(C(=O)OC)=CNC=C2C(=O)OC)cc1 [ST052274, methyl 4-(4-ethylphenyl)-5-(methoxycarbonyl)-1,4-dihydropyridine-3-carboxylate] | 4.952 % of control | 0 % of control |  |  | 
COc1ccc(C2C(C(=O)OC3CCCCC3)=C(C)NC3=C2C(=O)CC(C)(C)C3)cc1O (centres unmarked) [ST052325, cyclohexyl 4-(3-hydroxy-4-methoxyphenyl)-2,7,7-trimethyl-5-oxo-1,4,6,7,8-pentahydroquinoline-3-carboxylate] |  |  | 41.7% | 33% | 
CC1=C(C(=O)Nc2ccccc2)C(c2cccs2)C(C#N)=C(SCC(=O)NC2CCCCC2)N1 (centres unmarked) [RI_25] | 55.9 % of control | 36.5 % of control |  |  | 

— patent publication US20100119599A1 (ARCHER PHARMACEUTICALS, INC., priority 2006, published 2010)
